Earlier results in patent publication US9339471B2, “Long acting dual release product containing carbinoxamine and pseudoephedrine” (E5 PHARMA, LLC, priority 2007, dated 2016).

Conditions: dependent on urine pH; cited from earlier work

For CN[C@@H](C)[C@@H](O)c1ccccc1.Cl (relative stereo) [Pseudoephedrine, [S—(R*,R*)]-α-[1-(methylamino)ethyl]-benzenemethanol hydrochloride], the mean elimination half-life is listed as 4 to 6 h.
